Data reported in PubChem BioAssay (NCI).
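Exposure lasted 48 hours, with cells grown in 96-well plates and compounds tested at five concentrations. GI50: concentration for 50% inhibition of growth. The concentration for full growth arrest is given as TGI.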

Assays:
Experiment in all cases: DTP human tumour cell line panel, 48 h
A498 renal = system: A498 renal
BT-549 breast = system: BT-549 breast
CAKI-1 renal = system: CAKI-1 renal
DU-145 prostate = system: DU-145 prostate
EKVX NSCLC = system: EKVX NSCLC
HS 578T breast = system: HS 578T breast
MALME-3M melanoma = system: MALME-3M melanoma
NCI-H226 lung = system: NCI-H226 lung
NCI-H23 lung = system: NCI-H23 lung
OVCAR-5 ovarian = system: OVCAR-5 ovarian
SK-MEL-28 melanoma = system: SK-MEL-28 melanoma
SK-MEL-5 melanoma = system: SK-MEL-5 melanoma
SK-OV-3 ovarian = system: SK-OV-3 ovarian
SNB-19 CNS = system: SNB-19 CNS
T-47D breast = system: T-47D breast
UACC-257 melanoma = system: UACC-257 melanoma
UACC-62 melanoma = system: UACC-62 melanoma
786-0 renal = system: 786-0 renal
A549 NSCLC = system: A549 NSCLC
ACHN renal = system: ACHN renal
COLO 205 colon = system: COLO 205 colon
HCT-116 colon = system: HCT-116 colon
HCT-15 colon = system: HCT-15 colon
HL-60(TB) leukemia = system: HL-60(TB) leukemia
HOP-62 NSCLC = system: HOP-62 NSCLC
HOP-92 NSCLC = system: HOP-92 NSCLC
HT29 colon = system: HT29 colon
IGROV1 ovarian = system: IGROV1 ovarian
K-562 leukemia = system: K-562 leukemia
KM12 colon = system: KM12 colon
LOX IMVI melanoma = system: LOX IMVI melanoma
M14 melanoma = system: M14 melanoma
MCF7 breast = system: MCF7 breast
MDA-MB-231 breast = system: MDA-MB-231 breast
MDA-MB-435 = system: MDA-MB-435
MOLT-4 leukemia = system: MOLT-4 leukemia
NCI-H460 lung = system: NCI-H460 lung
NCI-H522 lung = system: NCI-H522 lung
NCI/ADR-RES ovarian = system: NCI/ADR-RES ovarian
OVCAR-3 ovarian = system: OVCAR-3 ovarian
OVCAR-4 ovarian = system: OVCAR-4 ovarian
OVCAR-8 ovarian = system: OVCAR-8 ovarian
PC-3 prostate = system: PC-3 prostate
RPMI-8226 leukemia = system: RPMI-8226 leukemia
RXF 393 renal = system: RXF 393 renal
SF-268 CNS = system: SF-268 CNS
SF-295 CNS = system: SF-295 CNS
SK-MEL-2 melanoma = system: SK-MEL-2 melanoma
SN12C renal = system: SN12C renal
SNB-75 CNS = system: SNB-75 CNS
SR leukemia = system: SR leukemia
SW-620 colon = system: SW-620 colon
TK-10 renal = system: TK-10 renal
U251 CNS = system: U251 CNS
UO-31 renal = system: UO-31 renal

## CCCCCCCCCCCCCCCCCC1=NCCN1C(=O)OCCO
A498 renal
  GI50: 9.29 µM
  TGI: 56.7 µM
BT-549 breast
  GI50: 3.19 µM
  TGI: 18.3 µM
CAKI-1 renal
  GI50: 1.75 µM
  TGI: 3.83 µM
DU-145 prostate
  GI50: 1840 nM
  TGI: 3.37 µM
EKVX NSCLC
  GI50: 1.75 µM
  TGI: 4.24 µM
HS 578T breast
  GI50: 4.08 µM
  TGI: > 100 µM
MALME-3M melanoma
  GI50: 12.9 µM
  TGI: 42.9 µM
NCI-H226 lung
  GI50: 6.24 µM
  TGI: 45.2 µM
NCI-H23 lung
  GI50: 5.64 µM
  TGI: > 100 µM
OVCAR-5 ovarian
  GI50: 3.35 µM
  TGI: 26.4 µM
SK-MEL-28 melanoma
  GI50: 5.92 µM
  TGI: 24.5 µM
SK-MEL-5 melanoma
  GI50: 2.93 µM
  TGI: 10.3 µM
SK-OV-3 ovarian
  GI50: 2.5 µM
  TGI: 7.04 µM
SNB-19 CNS
  GI50: 3.39 µM
  TGI: 12.9 µM
T-47D breast
  GI50: 2.89 µM
  TGI: 9.48 µM
UACC-257 melanoma
  GI50: 2.28 µM
  TGI: 5.68 µM
UACC-62 melanoma
  GI50: 1870 nM
  TGI: 3.46 µM

## CN(C)CCCNC(=O)c1ccc2c(c1)oc1cc3ccccc3c(=O)n12
786-0 renal
  GI50: > 50 µM
  TGI: > 50 µM
A549 NSCLC
  GI50: 5.98 µM
  TGI: 16 µM
ACHN renal
  GI50: 8.33 µM
  TGI: 16.1 µM
BT-549 breast
  GI50: 12.7 µM
  TGI: 26.5 µM
CAKI-1 renal
  GI50: 11 µM
  TGI: 28.6 µM
COLO 205 colon
  GI50: 14.6 µM
  TGI: 32.5 µM
EKVX NSCLC
  GI50: 17.6 µM
  TGI: 45.7 µM
HCT-116 colon
  GI50: 19.3 µM
  TGI: > 50 µM
HCT-15 colon
  GI50: 12.3 µM
  TGI: > 50 µM
HL-60(TB) leukemia
  GI50: 11 µM
  TGI: 30.8 µM
HOP-62 NSCLC
  GI50: > 50 µM
  TGI: > 50 µM
HOP-92 NSCLC
  GI50: > 50 µM
  TGI: > 50 µM
HT29 colon
  GI50: 12.7 µM
  TGI: 27.7 µM
IGROV1 ovarian
  GI50: 9.94 µM
  TGI: 43.5 µM
K-562 leukemia
  GI50: 27.2 µM
  TGI: > 50 µM
KM12 colon
  GI50: 19.1 µM
  TGI: > 50 µM
LOX IMVI melanoma
  GI50: 9.4 µM
  TGI: 17.9 µM
M14 melanoma
  GI50: 14.3 µM
  TGI: 35.5 µM
MALME-3M melanoma
  GI50: > 50 µM
  TGI: > 50 µM
MCF7 breast
  GI50: 15 µM
  TGI: 39.2 µM
MDA-MB-231 breast
  GI50: 16.9 µM
  TGI: > 50 µM
MDA-MB-435
  GI50: 19.1 µM
  TGI: > 50 µM
MOLT-4 leukemia
  GI50: 18.4 µM
  TGI: > 50 µM
NCI-H23 lung
  GI50: 35.4 µM
  TGI: > 50 µM
NCI-H460 lung
  GI50: 9.96 µM
  TGI: 39.9 µM
NCI-H522 lung
  GI50: 9.33 µM
  TGI: 21.8 µM
NCI/ADR-RES ovarian
  GI50: > 50 µM
  TGI: > 50 µM
OVCAR-3 ovarian
  GI50: 9.24 µM
  TGI: 23.9 µM
OVCAR-4 ovarian
  GI50: 40.9 µM
  TGI: > 50 µM
OVCAR-8 ovarian
  GI50: 10.1 µM
  TGI: 24.9 µM
PC-3 prostate
  GI50: 31.7 µM
  TGI: > 50 µM
RPMI-8226 leukemia
  GI50: 17.1 µM
  TGI: > 50 µM
RXF 393 renal
  GI50: 6.85 µM
  TGI: 18.2 µM
SF-268 CNS
  GI50: 16.1 µM
  TGI: 40 µM
SF-295 CNS
  GI50: 19 µM
  TGI: 40.5 µM
SK-MEL-2 melanoma
  GI50: 9.3 µM
  TGI: 32.6 µM
SK-MEL-28 melanoma
  GI50: 14.5 µM
  TGI: 29.3 µM
SK-MEL-5 melanoma
  GI50: 6.1 µM
  TGI: 13 µM
SK-OV-3 ovarian
  GI50: 38.7 µM
  TGI: > 50 µM
SN12C renal
  GI50: 15.4 µM
  TGI: 43.4 µM
SNB-19 CNS
  GI50: > 50 µM
  TGI: > 50 µM
SNB-75 CNS
  GI50: 9.44 µM
  TGI: 22 µM
SR leukemia
  GI50: 10 µM
  TGI: 46.6 µM
SW-620 colon
  GI50: 15.5 µM
  TGI: > 50 µM
T-47D breast
  GI50: 11.5 µM
  TGI: 26.7 µM
TK-10 renal
  GI50: 25.1 µM
  TGI: > 50 µM
U251 CNS
  GI50: 11.1 µM
  TGI: 22.8 µM
UACC-257 melanoma
  GI50: 12.6 µM
  TGI: 36.8 µM
UACC-62 melanoma
  GI50: > 50000 nM
  TGI: > 50 µM
UO-31 renal
  GI50: 8.75 µM
  TGI: 20.2 µM
